For the test, the system named is CIRAR: Canada thistle (Cirsium arvense). The test can be described thus: Post-emergent Test III, herbicidal activity in wheat and barley. Format: in vivo. As to conditions: Table 8, 21 d. Put shortly: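 GR20, GR50, GR80 and GR90 come from probit analysis of visual injury scores (0 = none, 100 = complete kill) taken 21 d after treatment. Foliar application was by track sprayer delivering 187 L/ha at five rates, from high down to 1/16×, onto greenhouse plants at the 2–3 leaf stage, with solvent-blank controls.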

Structures are written as SMILES.

In the case of `COc1c(N)nc(-c2ccc(Br)c(F)c2)nc1C(=O)O` [Compound 113, 6-Amino-2-(4-bromo-3-fluorophenyl)-5-methoxypyrimidine-4-carboxylic acid], the pest or weed control at 35 g/ha (Cirsium arvense, post-emergence, 504 h, 35 g ai/ha, post-emergent, read-out: Visual Growth Reduction (%) 21 Days After Application CIRAR) fell in the range of 75 to 84%. Also, the pest or weed control at 70 g/ha (Cirsium arvense, post-emergence, 504 h, 70 g ai/ha, post-emergent, read-out: Visual Growth Reduction (%) 21 Days After Application CIRAR) was 85 to 94%. The “GR50 CIRAR” value (dose for 50 percent growth reduction, probit analysis) is listed as 7 g ai/ha. The “GR80 CIRAR” value (dose for 80 percent growth reduction, probit analysis) is 33 g ai/ha.

Values taken from patent publication US9113629B2, “4-amino-6-(4-substituted-phenyl)-picolinates and 6-amino-2-(4-substituted-phenyl)-pyrimidine-4-carboxylates and their use as herbicides” (DOW AGROSCIENCES LLC, priority 2013, dated 2015).
